According to the supplement of paper PMC10307832:

How the values were obtained:
Assay in all cases: relative viability (nuclei count vs DMSO), 5 days (fraction); higher = more cells survive
[1] = compound: CC(C)CCN1c2nc(Nc3cc(F)c(O)c(F)c3)ncc2N(C)C(=O)C1C [BI-D1870] + CC1(C)CCC(c2ccc(Cl)cc2)=C(CN2CCN(c3ccc(C(=O)NS(=O)(=O)c4ccc(N[C@H](CCN5CCOCC5)CSc5ccccc5)c(S(=O)(=O)C(F)(F)F)c4)cc3)CC2)C1 [Navitoclax] (partner 0.5 µM)
Method in brief: (§1)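 Relative viability equals treated-well nuclei counts divided by vehicle-well nuclei counts. Counts came from 4× images of lung cancer cell lines grown in 1536-well plates for 5 days after pin-tool dosing on the day after seeding. Dosing used one drug alone or a fixed anchor-drug dose plus five library-drug doses (not always all listed) in √10 steps, and values are medians of duplicate plates.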

[2] = compound: CC(C)CCN1c2nc(Nc3cc(F)c(O)c(F)c3)ncc2N(C)C(=O)C1C [BI-D1870] + CS(=O)(=O)CCNCc1ccc(-c2ccc3ncnc(Nc4ccc(OCc5cccc(F)c5)c(Cl)c4)c3c2)o1 [Lapatinib] (partner 2 µM)
Method in brief: as §1

[3] = compound: O=c1ncccn1[C@@H]1O[C@H](CO)[C@@H](O)[C@H]1O [Zebularine] + CCNC(=O)c1noc(-c2cc(C(C)C)c(O)cc2O)c1-c1ccc(CN2CCOCC2)cc1 [Luminespib] (partner 0.01 µM)
Method in brief: as §1

[4] = compound: O=c1ncccn1[C@@H]1O[C@H](CO)[C@@H](O)[C@H]1O [Zebularine] + Cc1nc(Nc2ncc(C(=O)Nc3c(C)cccc3Cl)s2)cc(N2CCN(CCO)CC2)n1 [Dasatinib] (partner 0.075 µM)
Method in brief: as §1

Cell Line | relative viability ([1]; first compound 0.04 µM) | relative viability ([1]; first compound 0.1265 µM) | relative viability ([1]; first compound 0.4 µM) | relative viability ([1]; first compound 1.265 µM) | relative viability ([1]; first compound 4 µM) | relative viability ([2]; first compound 0.04 µM) | relative viability ([2]; first compound 0.1265 µM) | relative viability ([2]; first compound 0.4 µM) | relative viability ([2]; first compound 1.265 µM) | relative viability ([2]; first compound 4 µM) | relative viability ([3]; first compound 1 µM) | relative viability ([3]; first compound 3.162 µM) | relative viability ([3]; first compound 10 µM) | relative viability ([3]; first compound 31.62 µM) | relative viability ([3]; first compound 100 µM) | relative viability ([4]; first compound 1 µM) | relative viability ([4]; first compound 3.162 µM) | relative viability ([4]; first compound 10 µM) | relative viability ([4]; first compound 31.62 µM) | relative viability ([4]; first compound 100 µM)
COR-L23 | 1.15 | 0.951 | 1.06 | 1.1 | 0.479 | 1.07 | 0.929 | 0.992 | 0.798 | 0.982 | 0.88 | 0.753 | 0.332 | 0.439 | 0.171 | 0.616 | 0.442 | 0.373 | 0.239 | 0.211
NCI-H2087 | 1.14 | 1.01 | 1.06 | 1.09 | 0.802 | 1.14 | 1.09 | 1.34 | 1.36 | 0.877 | 0.19 | 0.17 | 0.143 | 0.176 | 0.141 | 1.14 | 0.786 | 0.426 | 0.972 | 0.631
LC-2-ad | 0.549 | 0.44 | 0.444 | 0.41 | 0.244 | 1.04 | 0.932 | 0.975 | 1.08 | 0.971 | 1.02 | 1.01 | 0.699 | 0.73 | 0.541 | 0.731 | 0.494 | 0.226 | 0.491 | 0.34
NCI-H1915 | 0.822 | 0.763 | 0.803 | 0.815 | 0.746 | 1.04 | 0.984 | 0.969 | 1.04 | 0.834 | 0.887 | 0.818 | – | 0.772 | 0.322 | 0.362 | 0.328 | – | 0.374 | 0.287
NCI-H1793 | 0.34 | 0.342 | 0.372 | 0.554 | 0.45 | 0.937 | 0.557 | 0.679 | 1.03 | 0.971 | 0.196 | 0.197 | – | 0.203 | 0.142 | 0.479 | 0.373 | – | 0.25 | 0.176
NCI-H2023 | 1.03 | 0.811 | 1.01 | 0.864 | 0.894 | 0.903 | 0.745 | 0.886 | 0.764 | 0.59 | 0.942 | 1.04 | 0.301 | 0.448 | 0.174 | 0.636 | 0.572 | 0.423 | 0.392 | 0.213
COR-L 105 | 0.863 | 0.673 | 0.761 | 0.997 | 0.75 | 0.387 | 0.363 | 0.355 | 0.407 | 0.335 | 0.844 | 0.839 | 0.508 | 1.06 | 0.652 | 0.33 | 0.294 | 0.33 | 0.367 | 0.369
RERF-LC-KJ | 0.917 | 0.632 | 0.979 | 1.02 | 0.888 | 0.886 | 0.783 | 0.8 | 0.821 | 0.863 | 1.29 | 1.17 | 0.827 | 1.54 | 1.53 | 0.92 | 0.81 | 0.759 | 0.999 | 0.956
